Measurements published in patent US8101410B2 (Entelechon GmbH, priority 2005, dated 2012).
Read-outs that look alike come from different tables or passages of the source.

Legend:
[1] = tested on: Nicotiana tabacum cv. Petit Havana SR1 shoots
Protocol: In one set of experiments uniformly looking ˜1 cm long shoots were taken while in a second set of experiments a bunch of 6-8 shoots were used.
For this purpose, shoots of Nicotiana tabacum cv. Petit Havana SR1 were obtained by multiplying the shoots regenerated from the leaf segments on MS medium supplemented with 2 mg/l BAP.

[2] = tested on: shoots of codAps transgenic lines A, B, D and E of Brassica juncea cv. Varuna
Excerpt: The codA gene was isolated in the inventors' laboratory from local strain of Arthrobacter globiformis (GenBank accession number AY589052, hereafter referred as codAps gene) and cloned into pPZP200lox(npt 11) vector (obtained from Dr. Deepak Pental, Department of Genetics, South Campus, University of Delhi, New Delhi, India). The resultant vector named as pSG was electroporated into Agrobacterium tumefaciens strain GV3101. Hypocotyl and cotyledonary petiolar explants were excised from 6 d old sterile seedlings were transformed using Agrobacterium tumefaciens strain GV3101/pSG/codAps.

[3] = tested on: Brassica juncea cv. Varuna wild type seeds/seedlings
Protocol: (§1) T2 seeds of various independent homozygous transgenic lines of Brassica juncea cv. […] Homozygous transgenic genotypes were identified based on 100 percent germination of T2 seed of various independent transformed lines in the presence of 50 mg/l kanamycin.

[4] = tested on: homozygous codAps transgenic lines A, B, D and E of Brassica juncea cv. Varuna seeds/seedlings; conditions: for seedling growth: transgenic lines
Protocol: as §1
For these studies seeds from four homozygous transgenic lines (lines A, B, D and E) of T2 generation were used. The homozygous genotypes were identified based on 100 percent germination of seed in the presence of 50 mg/l kanamycin (i.e. otherwise lethal to wild type/non-transgenic lines).

[5] = tested on: Brassica juncea cv. Varuna explants (wild type)
[6] = tested on: Brassica juncea wild type shoots
Nicotiana tabacum L. [7] = conditions: Present Investigations
Brassica juncea L. = conditions: Present Investigations
plant cells [8] = conditions: Table 2, choline, present investigations
[9] = tested on: wild type/non-transgenic lines of Brassica juncea cv. Varuna; experiment: Seed germination in the presence of kanamycin; type: in vivo
plant cells [10] = conditions: Table 2, range over plant species, literature; cited from earlier work
Solanum tuberosum L. = conditions: Haldrup et al. (1998); cited from earlier work
[11] = tested on: Lycopersicon esculentum L.; conditions: Haldrup et al. (1998); cited from earlier work
Nicotiana tabacum L. [12] = conditions: Haldrup et al. (1998); cited from earlier work
[13] = 60 mM choline, transgenic lines
[14] = lower concentrations of choline, shoot induction medium

**Q.** Which “time to loss of green pigmentation followed by senescence/death after inoculation” value ([1]; 40 mM choline) does the source give for `C[N+](C)(C)CCO.[Cl-]` [Choline, choline chloride] here?
**A.** ≤ 7 days

**Q.** And the shoot growth ([1]; MS medium with choline chloride 20 and 40 mM)?
**A.** significantly curtailed shoot growth

**Q.** What about the “growth of the shoots” value ([2]; 40 mM choline, transgenic lines) of the same compound?
**A.** no significant alteration in the growth

**Q.** What about the green pigmentation [2, 13] of the same compound?
**A.** no loss in green pigmentation

**Q.** And the growth of shoots [2, 13]?
**A.** suppression in the growth

**Q.** What about the “choline concentration that shoots were able to withstand” value ([2]; transgenic lines A, B, D, E, MS medium) of the same compound?
**A.** ≤ 60 mM

**Q.** And the “fresh weight of seedlings, lower than those raised in absence of choline” value ([3]; 40 mM choline, MGM, 30 d)?
**A.** 90%

**Q.** What about the “seed germination and early seedling growth” value ([3]; MGM (half strength MS without sucrose/organics) with choline) of the same compound?
**A.** significantly curtailed

**Q.** What about the “percent seed germination as well as seedling growth” value ([3]; MS medium supplemented with choline (20, 40 mM)) of the same compound?
**A.** suppressed significantly

**Q.** And the seed germination ([3]; MS medium, 40 mM choline)?
**A.** almost no/little seed germination

**Q.** What about the “fresh weight of seedlings, lower than respective controls” value ([4]; four independent transgenic lines, 40 mM choline, MGM, 30 d) of the same compound?
**A.** 25-30%

**Q.** What about the “seed germination and seedling growth” value ([4]; transgenic lines A, B, D, E, MGM, 40 mM choline vs 20 mM) of the same compound?
**A.** delay in seed germination as well as reduction in seedling growth

**Q.** What about the seed germination ([4]; transgenic lines A, B, D, E, MS medium, all concentrations of choline tested (20, 40 mM)) of the same compound?
**A.** 100%

**Q.** And the seedling growth ([4]; MS medium, 20 mM choline and below)?
**A.** comparable to those grown in the absence of choline

**Q.** What about the seedling growth ([4]; MS medium, 40 mM choline) of the same compound?
**A.** significant reduction in seedling growth

**Q.** And the “cotyledonary explants that lost green pigmentation completely” value ([5]; 40 mM choline)?
**A.** ~100%

**Q.** And the cultures exhibiting callogenesis ([5]; 40 mM choline)?
**A.** 100%

**Q.** And the “shoot induction (caulogenesis) from hypocotyl and cotyledonary petiolar explants” value ([5]; choline chloride 10, 20, 30, 40 mM in shoot induction medium (MS + BAP, NAA, AgNO3), 20 d)?
**A.** suppressed shoot induction

**Q.** And the “expansion of the cotyledonary leaves of cotyledonary petiolar explants” value ([5]; choline in shoot induction medium, effect increases with concentration)?
**A.** significantly curtailed the expansion of the cotyledonary leaves

**Q.** What about the “callogenesis i.e. callus induction” value [5, 14] of the same compound?
**A.** did not cause any significant alteration in callogenesis

**Q.** What about the rhizogenesis [5, 14] of the same compound?
**A.** promoted rhizogenesis

**Q.** And the growth of shoots ([6]; MS medium with choline chloride 5-60 mM, wild type)?
**A.** significantly curtailed the growth of shoots

**Q.** And the “time to death of shoots after inoculation” value ([6]; choline 20 mM and above, wild type shoots)?
**A.** ≤ 15 days

**Q.** And the “choline concentration giving loss in green pigmentation followed by browning/senescence leading to death” value ([6]; wild type shoots, MS medium)?
**A.** ≥ 20 mM

**Q.** And the Selection concentration (Nicotiana tabacum L. [7])?
**A.** 5584 mg/L

**Q.** And the Selection concentration (Brassica juncea L.)?
**A.** 5584 mg/L

**Q.** And the Selection concentration (plant cells [8])?
**A.** 5584 mg/L

**Q.** For `NC[C@H]1O[C@H](O[C@H]2[C@H](O)[C@@H](O[C@H]3O[C@H](CO)[C@@H](O)[C@H](N)[C@H]3O)[C@H](N)C[C@@H]2N)[C@H](O)[C@@H](O)[C@@H]1O` [Kanamycin], which “kanamycin concentration lethal to wild type/non-transgenic lines” value [9] is on record?
**A.** 50 mg/L

**Q.** With `CP(=O)(O)CC[C@H](N)C(=O)O` [Phosphinothricin] as the compound, how does the Selection concentration (plant cells [10]) read?
**A.** 5 to 10 mg/L

**Q.** For `O=C[C@H](O)[C@@H](O)[C@H](O)CO` [Xylose], which Selection concentration (Solanum tuberosum L.) is on record?
**A.** 3750 mg/L

**Q.** And the Selection concentration [11]?
**A.** 15000 mg/L

**Q.** And the Selection concentration (Nicotiana tabacum L. [12])?
**A.** 20000 mg/L

**Q.** And the Selection concentration (plant cells [10])?
**A.** 3750 to 20000 mg/L

**Q.** What does the source list for `[Cl-].[K+]` [potassium chloride, reference compound]?
**A.** shoot induction ([5]; potassium chloride 10, 20, 30, 40 mM in place of choline chloride): no significant alteration; expansion of cotyledons and/or green pigmentation ([5]; potassium chloride at highest concentration (40 mM)): did not cause any suppression in the expansion of cotyledons and/or alteration in green pigmentation
